Data published in patent US12729194B2, “Compounds for the treatment of human immunodeficiency virus” (priority 2019, dated 2026).

Columns and labels:
[1] = test system: HIV-1JR-FL Env on virions; test: Single-molecule FRET of virion Env; conditions: saturating concentration (100 μM)
Protocol: Single-molecule fluorescence resonance energy transfer (smFRET): Viruses with HIV-1JR-FL Env that is double-tagged at V1-Q3 and V4-A1 were prepared for smFRET imaging, as described in Munro, Science 346, 759-763 (2014). The high (40:1) ratio of wild-type Env to tagged Env ensures that, on average, only one tagged protomer is available for imaging on a single virus particle. The Q3 and A1 double-tagged viruses allowed the incorporation of Cy3B and Cy5 fluorescent labels, respectively. Thus, the relative movements of the V1 and V4 regions in one gp120 subunit of an individual Env trimer could be monitored in real time. The smFRET images were acquired on an in-house-built total internal reflection fluorescent microscope, as described in Munro. HIV-1JR-FL viruses incubated with saturating concentrations (100 μM) of AEG-II-168 or control HIV-1JR-FL viruses without compound were used for smFRET imaging. Data were analyzed with the customized MATLAB (Mathworks) program SPARTAN as described in Juette, Nat Methods 13, 341-344 (2016). FRET trajectories meeting the criteria of quality (sufficient signal:noise ratio, single dye photobleaching, anti-correlated features between donor and acceptor intensity and fluorescence lifetime) were compiled into FRET histograms. Hidden Markov modeling was used to fit the FRET histograms with the sum of three Gaussian distributions. […]

HIV-1 Env complexes = test: Association of gp120 with detergent-solubilized His6-tagged Env complexes (Ni-NTA precipitation, Western blot)
Protocol: Association of gp120 with Env complexes: The non-covalent association of gp120 with HIV-1 Env complexes was studied using carboxy-terminally His6-tagged Envs from three different sources: 1) VLPs produced from A549-Gag/Env cells; 2) A549 cells expressing HIV-1AD8 and HIV-1CH848 Envs; and 3) HOS cells transiently expressing wild-type HIV-1JR-FL Env and wild-type and mutant HIV-1AD8 Envs. VLP and cell lysates from A549 cells were prepared in 1.5% Triton X-100. Cell lysates from HOS cells were prepared in 1.5% Cymal-5 (Anatrace). The VLP and cell lysates were clarified as described above. DMSO, a compound described herein, sCD4 or the CD4-mimetic compound, BNM-III-170 (Melillo, ACS Med Chem Letters 7, 33-334, 2016), was added to the lysate. Aliquots of the lysates were saved for Western blotting to detect the gp160, gp120 and gp41 glycoproteins in the input sample. The bulk of the lysates was incubated with nickel-nitriloacetic acid (Ni-NTA) beads (Qiagen) for 1.5 hours at 4° C. The beads were pelleted (1000 rpm for 1 minute at room temperature), washed 3 times with wash buffer with 1% Triton X-100, boiled in LDS sample buffer, and analyzed by Western blotting as described above.

[2] = test system: cell-surface HIV-1AD8 Env (A549-Env cells); test: Immunoprecipitation of cell-surface Env by antibody panel; type: cell-based; conditions: 10 μM
Protocol: Immunoprecipitation of cell-surface Env: Doxycycline-induced A549-Env cells were washed twice with washing buffer (1×PBS+5% FBS), with or without 10 μM BMS-806 or compounds described herein. The cells were then incubated with 5 μg/ml antibody for one hour at 4° C. in the continued presence or absence of the compounds described herein. After washing four times in washing buffer, the cells were lysed in NP-40 lysis buffer (0.5% NP-40, 0.5 M NaCl, 10 mM Tris, pH 7.5) for five minutes at 4° C. with gentle agitation. Unless specifically indicated otherwise, compounds described herein were not added to the NP-40 lysis buffer. The lysates were cleared by centrifugation at 13,200×g for 20 minutes at 4° C., and the clarified supernatants were incubated with Protein A-Sepharose beads (50 μl of 25 mg/ml in PBS per sample) for one hour at room temperature. The beads were pelleted (1000 rpm×1 min) and washed three times with final wash buffer (200 mM Tris-HCl, pH 8.0, 100 mM (NH4)2SO4, 1 M NaCl and 0.1% NP-40). The beads were suspended in LDS sample buffer, boiled and analyzed by Western blotting using 1:2000 goat anti-gp120 polyclonal antibody (ThermoFisher) and 1:2000 HRP-conjugated rabbit anti-goat IgG (ThermoFisher). The transmembrane Env was analyzed by Western blot with the 4E10 anti-gp41 antibody and HRP-conjugated goat anti-human IgG (Santa Cruz).

[3] = HIV-1AD8 Env variant in HOS cell lysates

| SMILES | Virion Env conformational state by smFRET [1] | sCD4-induced shedding of gp120 from Env complexes (HIV-1 Env complexes; 10 μM added to cell lysates) | BMS-806-induced gp120-Env association, I559F mutant (HIV-1 Env complexes; [3]) | BMS-806-induced gp120-Env association, L193A mutant (HIV-1 Env complexes; [3]) | Recognition of cell-surface Env by poorly neutralizing antibodies ([2]; 17b, 19b, 902090, F105) | Binding of bNAbs to mature cell-surface gp120 ([2]; PG9, PG16, PGT145, PGT151, 35022) |
| --- | --- | --- | --- | --- | --- | --- |
| COc1ccc(-c2ccc(CNC(=O)c3c(F)c(F)c(N=[N+]=[N-])c(F)c3F)o2)c2[nH]cc(C(=O)C(=O)N3CCN(C(=O)c4ccccc4)CC3)c12 [AEG-II-168] | maintained a State-1-dominant conformation |  |  |  |  |  |
| COc1ccnc2[nH]cc(C(=O)C(=O)N3CCN(C(=O)c4ccccc4)C[C@H]3C)c12 [BMS-806, reference compound] |  | could be blocked | abrogated responsiveness to BMS-806 | poor responsiveness | decreased the recognition of the uncleaved Env | increased the binding of some bNAbs |
